# Results as given in ChEMBL document CHEMBL1143137, “Synthesis, in vitro and in vivo activity of thiamine antagonist transketolase inhibitors” (Bioorg Med Chem Lett, 2008).
# The source made the active and inactive calls. No cut-off for these calls is given here.
# Columns and labels:
# [1] = target: T1, Transketolase (Homo sapiens, UniProt P29401); assay: Inhibition of human transketolase in HCT116 cells; assay type: cell-based, HCT-116
# T1 sequence (P29401 whole entry): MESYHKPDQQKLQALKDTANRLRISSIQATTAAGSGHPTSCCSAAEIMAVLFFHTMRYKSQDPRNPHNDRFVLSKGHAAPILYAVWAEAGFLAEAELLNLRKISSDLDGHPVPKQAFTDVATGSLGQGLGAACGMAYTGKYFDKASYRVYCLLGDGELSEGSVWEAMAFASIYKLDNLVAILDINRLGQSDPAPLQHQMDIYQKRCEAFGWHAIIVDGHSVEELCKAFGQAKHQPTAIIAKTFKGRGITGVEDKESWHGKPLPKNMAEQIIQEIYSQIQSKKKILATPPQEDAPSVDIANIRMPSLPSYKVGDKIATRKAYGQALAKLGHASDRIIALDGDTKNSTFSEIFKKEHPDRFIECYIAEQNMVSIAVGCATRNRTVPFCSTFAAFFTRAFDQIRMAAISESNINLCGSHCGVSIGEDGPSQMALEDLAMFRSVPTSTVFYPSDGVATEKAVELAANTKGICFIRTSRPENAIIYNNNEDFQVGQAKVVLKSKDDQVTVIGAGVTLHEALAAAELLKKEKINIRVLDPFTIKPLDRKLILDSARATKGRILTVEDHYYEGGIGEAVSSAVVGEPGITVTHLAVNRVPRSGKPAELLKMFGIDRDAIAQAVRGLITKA
# [2] = target: T1, Transketolase; assay: Inhibition of transketolase by TPPK/apo-TK coupled assay
# [3] = target: T1, Transketolase; assay: Binding affinity to apo-transketolase
# [4] = system: HCT-116; assay: Antitumor activity against human HCT116 cells xenografted mouse assessed as reduction in tumor size at 100 mg/kg, iv bid for 2 weeks; assay type: functional, organism-based; design: dose 100 mg/kg
# [5] = system: Mus musculus; assay: Inhibition of transketolase activity in human HCT116 cells xenografted mouse at 100 mg/kg, iv bid for 2 weeks; assay type: functional, organism-based; design: dose 100 mg/kg; conditions: HCT-116
# [6] = system: Mus musculus; assay: Inhibition of alphaKGDH activity in human HCT116 cells xenografted mouse at 100 mg/kg, iv bid for 2 weeks; assay type: functional, organism-based; design: dose 100 mg/kg; conditions: HCT-116
# [7] = system: Mus musculus; assay: Inhibition of G6PD activity in human HCT116 cells xenografted mouse at 100 mg/kg, iv bid for 2 weeks; assay type: functional, organism-based; design: dose 100 mg/kg; conditions: HCT-116
EC50 [1],Kd [2],SMILES,further results
25000 nM,,Cc1ccc(C[n+]2c(-c3ccc4c(c3)OCO4)sc(CCO)c2C)c(N)n1,
,1460 nM,Cc1c(CCO)sc[n+]1Cc1c(C(F)(F)F)cc(C(F)(F)F)nc1N,
1600 nM,7 nM,Cc1c(CCO)sc[n+]1Cc1ccc(N)nc1,
,29 nM,Cc1ccc(C[n+]2csc(CCO)c2)c(N)n1,
,36 nM,Cc1c(CCO)sc[n+]1Cc1cccnc1N,
24000 nM,64 nM,Cc1c(CCO)sc[n+]1Cc1cnccc1N,
470 nM,310 nM,Cc1c(CCO)sc[n+]1Cc1ccc(C(F)(F)F)nc1,
1000 nM,109 nM,Cc1c(CCO)sc[n+]1Cc1cc(I)cnc1N,
21 nM,75 nM,CCc1sc(CCO)c(C)[n+]1Cc1ccc(C)nc1N,
570 nM,25 nM,Cc1ccc(C[n+]2csc(CCO)c2CO)c(N)n1,
1300 nM,,Cc1ccc(C[n+]2csc(CCCO)c2C)c(N)n1,
2200 nM,,Cc1ccc(C[n+]2csc(CCC#N)c2C)c(N)n1,
56 nM,25 nM,Cc1ccc(C[n+]2c(C)sc(CCO)c2C)c(N)n1,
50 nM,28 nM,Cc1ccc(C[n+]2csc([C@H](O)CO)c2C)c(N)n1,
4.7 nM,,CC(=O)OCCc1sc[n+](Cc2ccc(C)nc2N)c1C,
360 nM,57 nM,Cc1c(CCO)sc[n+]1Cc1ccc(C#N)nc1N,
160 nM,104 nM,Cc1c(CCO)sc[n+]1Cc1ccc(C(F)(F)F)nc1N,
,46 nM,Cc1c(CCO)sc[n+]1Cc1ccc(Cl)nc1N,

# Second part, the compound before the results:
SMILES,EC50 [1],Kd [2],further results
Cc1ccc(C[n+]2csc(CCOP(=O)(O)OP(=O)(O)O)c2C)c(N)n1,,,Kd [3]: 22 nM
Cc1c(CCO)sc[n+]1Cc1ccc(C(=O)c2ccccc2C(=O)O)nc1,3100 nM,140 nM,
Cc1ccc(C[n+]2cc(CCO)sc2C)c(N)n1,490 nM,36 nM,
Cc1ccc(C[n+]2csc([C@@H](O)CO)c2C)c(N)n1,2000 nM,27 nM,
Cc1cncc(C[n+]2csc(CCO)c2C)c1,38000 nM,220 nM,
Cc1ccc(C[n+]2c(Cc3cccnc3)sc(CCO)c2C)c(N)n1,840 nM,,
COC(=O)CCc1sc[n+](Cc2ccc(C)nc2N)c1C,2300 nM,,
Cc1cc(C)c(C[n+]2csc(CCO)c2C)c(N)n1,8.3 nM,34 nM,
Cc1ccc(C[n+]2csc(C(O)CO)c2C)c(N)n1 (configuration not stated),300 nM,53 nM,
CCc1c(CCO)sc[n+]1Cc1ccc(C)nc1N,950 nM,40 nM,
CC(=O)Nc1ccc(C[n+]2csc(CCO)c2C)c(N)n1,800 nM,23 nM,
Cc1ccc(C[n+]2csc(CCO)c2C)c(N)n1,26 nM,33 nM,Activity [4]: inactive; Activity [5]: Active; Activity [6]: Active; Activity [7]: inactive
Cc1ccc(C[n+]2c(C(C)O)sc(CCO)c2C)c(N)n1 (configuration not stated),30 nM,120 nM,
CCc1ccc(C[n+]2csc(CCO)c2C)c(N)n1,8.7 nM,10 nM,
